Numbers after ± are expanded uncertainties.
Conditions: Crystal; visual observation

Normal melting temperature: 120.6 ± 1.1 °C
SMILES: CC(C)=CCC[C@@H](C)[C@H]1CC[C@H]2[C@@H]3CC=C4C[C@@H](O)CC[C@]4(C)[C@H]3CC[C@]12C [desmosterol]

From the NIST ThermoML archive (doi:10.1021/je8006088)
